Test [1] deals with T1, cloned human GLP-1 receptor (Homo sapiens, UniProt P43220).
T1 construct: expressed in transfected cells; host or cells: CHO or HEK-293 cells
Description: Functional cell-based assay: cAMP functional assay. To be noted: for Emax: 0.5 h, percentage relative to maximal GLP-1-induced cAMP accumulation, na = not active in the assay, read-out: % activation. The gist of the method: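 Monolayer cells incubated 30 min at 37 °C with compounds (0.0001–100 μM) in IMDM containing 100 μM RO 20-1724 PDE inhibitor, 0.1% BSA and 2% DMSO. cAMP measured by HTRF.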
For orientation: Changes in cAMP serve as a functional read-out for many G protein-coupled receptors.

For another test, the target named is T2, human GLP-1 receptor (Homo sapiens, UniProt P43220).
T2 construct: expressed in transfected cells; host or cells: HEK-293 or CHO cells (membranes)
Description: Receptor binding assay: [125I]GLP-1 (aa 7-36) equilibrium radioligand binding. To be noted: membranes from HEK-293 or CHO cells expressing the human GLP-1 receptor; room temp 120 min. Here is the method:
Reactions were carried out in 96-well plates. Compound was diluted in 20% DMSO/water. The final assay concentration ranging from 0.1 nM to 100 uM in 2% final DMSO concentration was used. […] Plates were washed 5 times with cold 25 mM Tris-HCL, pH 7.5 containing 0.05% bovine serum albumin (BSA). Following filtration, 50 uL of Microscint PS (Packard part no. 6013631) was added, plates were sealed with TopSeal-A adhesive seals (Packard part no. 6005185). ^125I isotope bound to the Unifilter-96 GF/C plates was counted using a TopCount instrument (Packard).
Percent inhibition of [^125I] […] The IC50 values were calculated by fitting the data using parameters for a sigmoidal dose response, variable slope nonlinear regression (GraphPAD Prizm, San Diego, Calif.) according to the equation: Y=Bottom+(Top-Bottom)/(1+10^((Log EC50−X)*HillSlope)) wherein, X is the logarithm of concentration and Y is the response, and Y starts at Bottom and goes to Top with a sigmoid shape. This is identical to the four parameter logistic equation.

Molecules are shown by their SMILES.

T2 sequence (P43220 24-463): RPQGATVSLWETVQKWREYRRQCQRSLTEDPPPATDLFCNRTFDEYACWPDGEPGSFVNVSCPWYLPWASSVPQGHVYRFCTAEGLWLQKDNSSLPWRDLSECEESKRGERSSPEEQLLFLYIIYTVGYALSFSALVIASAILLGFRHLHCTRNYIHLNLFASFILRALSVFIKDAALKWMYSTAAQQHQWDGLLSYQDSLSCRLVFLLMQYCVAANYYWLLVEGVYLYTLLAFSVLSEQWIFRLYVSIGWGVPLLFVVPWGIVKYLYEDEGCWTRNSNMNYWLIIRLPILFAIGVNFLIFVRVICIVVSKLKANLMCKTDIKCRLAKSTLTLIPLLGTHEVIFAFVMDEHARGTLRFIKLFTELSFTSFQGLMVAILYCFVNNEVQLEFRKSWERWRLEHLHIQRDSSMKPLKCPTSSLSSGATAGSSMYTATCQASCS
T1 sequence (P43220 24-463): as above

By EC50 is commonly meant the concentration needed to bring the measured effect to its halfway point. A lower EC50 goes with greater potency. Turning to `N#Cc1ccc(-c2ccc(C[C@H](NC(=O)[C@@H]3Cc4cc5c(cc4CN3C(=O)c3ccccc3)OC(c3ccc(OCc4ccc(Cl)c(Cl)c4)cc3)C(=O)N5)C(=O)O)cc2)cc1` (stereo partly drawn) [Example 15, (S)-2-({(S)-6-Benzoyl-3-[4-(3,4-dichloro-benzyloxy)-phenyl]-2-oxo-2,3,5,6,7,8-hexahydro-1H-4-oxa-1,6-diaza-anthracene-7-carbonyl}-amino)-3-(4′-cyano-biphenyl-4-yl)-propionic acid], in test [1], the EC50 is 145 nM and the Emax was determined as 99.6%. Besides, the “% binding vs [125I]GLP-1” value on human GLP-1 receptor is recorded as 68%.
The corresponding values for `N#Cc1ccc(-c2ccc(C[C@H](NC(=O)[C@@H]3Cc4cc5c(cc4CN3Cc3ccccn3)OC(c3ccc(OCc4ccc(Cl)c(Cl)c4)cc3)C(=O)N5)C(=O)O)cc2)cc1` (stereo partly drawn) [Example 39, (S)-3-(4′-Cyano-biphenyl-4-yl)-2-({(S)-3-[4-(3,4-dichloro-benzyloxy)-phenyl]-2-oxo-6-pyridin-2-ylmethyl-2,3,5,6,7,8-hexahydro-1H-4-oxa-1,6-diaza-anthracene-7-carbonyl}-amino)-propionic acid] are 130 nM, 56% and 60%.
In the case of `CC[C@H](c1ccccc1)N1Cc2cc3c(cc2C[C@H]1C(=O)N[C@@H](Cc1ccc(-c2ccc(C#N)cc2)cc1)C(=O)O)N(C)C(=O)[C@H](c1ccc(OCc2ccc(Cl)c(Cl)c2)cc1)O3` [Example 88, (S)-3-(4′-Cyano-biphenyl-4-yl)-2-{[(3S,7S)-3-[4-(3,4-dichloro-benzyloxy)-phenyl]-1-methyl-2-oxo-6-((R)-1-phenyl-propyl)-2,3,5,6,7,8-hexahydro-1H-4-oxa-1,6-diaza-anthracene-7-carbonyl]-amino}-propionic acid], the “% binding vs [125I]GLP-1” value on human GLP-1 receptor is 60%.
Consider `CC[C@H](c1ccccc1)N1Cc2cc3c(cc2C[C@H]1C(=O)N[C@@H](Cc1ccc(-c2ccc(C#N)cc2)cc1)C(=O)O)N(C)C(=O)[C@@H](c1ccc(OCc2ccc(Cl)c(Cl)c2)cc1)O3` [Example 89], for which the “% binding vs [125I]GLP-1” value at human GLP-1 receptor stood at 44%.
Consider `CC[C@@H](c1ccccc1)N1Cc2cc3c(cc2C[C@H]1C(=O)N[C@@H](Cc1ccc(-c2ccc(Cl)cc2)cc1)C(=O)O)N(C)C(=O)[C@H](c1ccc(OCc2ccc(Cl)c(Cl)c2)cc1)O3` [Example 93, (S)-3-(4′-Chloro-biphenyl-4-yl)-2-{[(3S,7S)-3-[4-(3,4-dichloro-benzyloxy)-phenyl]-1-methyl-2-oxo-6-((S)-1-phenyl-propyl)-2,3,5,6,7,8-hexahydro-1H-4-oxa-1,6-diaza-anthracene-7-carbonyl]-amino}-propionic acid], for which, in test [1], the EC50 worked out at 138 nM and the Emax was 31%.
As for `CC[C@@H](c1ccccc1)N1Cc2cc3c(cc2C[C@H]1C(=O)N[C@@H](Cc1ccc(-c2ccc(OC)cc2)cc1)C(=O)O)N(C)C(=O)[C@H](c1ccc(OCc2ccc(Cl)c(Cl)c2)cc1)O3` [Example 94, (S)-2-{[(3S,7S)-3-[4-(3,4-Dichloro-benzyloxy)-phenyl]-1-methyl-2-oxo-6-((S)-1-phenyl-propyl)-2,3,5,6,7,8-hexahydro-1H-4-oxa-1,6-diaza-anthracene-7-carbonyl]-amino}-3-(4′-methoxy-biphenyl-4-yl)-propionic acid], in test [1], it took 424 nM to reach a half-maximal effect (EC50) and the Emax turned out to be 41%.
As to `CC[C@@H](c1ccccc1)N1Cc2cc3c(cc2C[C@H]1C(=O)N[C@@H](Cc1ccc(-c2ccc(F)cc2)cc1)C(=O)O)N(C)C(=O)[C@H](c1ccc(OCc2ccc(Cl)c(Cl)c2)cc1)O3` [Example 95, (S)-2-{[(3S,7S)-3-[4-(3,4-Dichloro-benzyloxy)-phenyl]-1-methyl-2-oxo-6-((S)-1-phenyl-propyl)-2,3,5,6,7,8-hexahydro-1H-4-oxa-1,6-diaza-anthracene-7-carbonyl]-amino}-3-(4′-fluoro-biphenyl-4-yl)-propionic acid], in test [1], the EC50 was found to be 364 nM and the Emax was determined as 49%. Moreover, the “% binding vs [125I]GLP-1” value at human GLP-1 receptor was found to be 65%.
In the case of `Cc1noc(C)c1S(=O)(=O)N1Cc2cc3c(cc2C[C@H]1C(=O)N[C@@H](Cc1ccc(-c2ccc(C#N)cc2)cc1)C(=O)O)N(C)C(=O)C(c1ccc(OCc2ccc(Cl)c(Cl)c2)cc1)O3` (stereo partly drawn) [Example 96, (S)-3-(4′-Cyano-biphenyl-4-yl)-2-{[(S)-3-[4-(3,4-dichloro-benzyloxy)-phenyl]-6-(3,5-dimethyl-isoxazole-4-sulfonyl)-1-methyl-2-oxo-2,3,5,6,7,8-hexahydro-1H-4-oxa-1,6-diaza-anthracene-7-carbonyl]-amino}-propionic acid], in test [1], the 50% effective concentration (EC50) stood at 362 nM and the Emax worked out at 8.5%.
Regarding `CC[C@@H](c1ccccc1)N1Cc2cc3c(cc2C[C@H]1C(=O)N[C@H](Cc1ccc(-c2ccc(C#N)cc2)cc1)C(=O)O)N(C)C(=O)[C@@H](c1ccc(OCc2ccc(Cl)c(Cl)c2)cc1)O3` [Example 98, (R)-3-(4′-Cyano-biphenyl-4-yl)-2-{[(3R,7S)-3-[4-(3,4-dichloro-benzyloxy)-phenyl]-1-methyl-2-oxo-6-((S)-1-phenyl-propyl)-2,3,5,6,7,8-hexahydro-1H-4-oxa-1,6-diaza-anthracene-7-carbonyl]-amino}-propionic acid], in test [1], the 50% effective concentration (EC50) came out at 626 nM and the Emax stood at 42%.
The corresponding values for `O=C1Nc2cc3c(cc2OC1c1ccc(OCc2ccc(Cl)c(Cl)c2)cc1)CN(C(=O)c1ccccc1)[C@H](C(=O)N[C@@H](Cc1ccc(Oc2ccncc2)cc1)C(=O)O)C3` (stereo partly drawn) [Example 99, (S)-2-({(S)-6-Benzoyl-3-[4-(3,4-dichloro-benzyloxy)-phenyl]-2-oxo-2,3,5,6,7,8-hexahydro-1H-4-oxa-1,6-diaza-anthracene-7-carbonyl}-amino)-3-[4-(pyridin-4-yloxy)-phenyl]-propionic acid] are 1000 nM and 28%.

(Values after US7906507B2, “Oxadiazoanthracene compounds for the treatment of diabetes” (TransTech Pharma, Inc., priority 2008, dated 2011).)
